# Experiments:
# RIF-1 cells [1] = test: Cell viability (MTS assay) after in vitro photodynamic therapy; format: cell-based, mouse; conditions: 1 μg/ml BPD, 3-hour incubation, maximal light dose, MTS 24 hours after treatment
# Method: RIF-1 cells were plated three days prior to treatment in black, plastic 96-well plates with a transparent bottom (Fisher Scientific, Springfield, N.J.) at a density of 5000 cells/200 μl medium/well. After 3 days of growth in 5% CO2 at 37° C. in a humidified incubator, the cells were used in photodynamic therapy. On the day of treatment, the medium was replaced with 100 μl/well of medium with 1 μg/ml BPD in the verteporfin preparation. After a 3-hour incubation, the BPD solution was removed and rinsed once with Hanks Balanced Salt Solution (HBSS), then 100 μl of fresh medium was added to the wells. Cells were irradiated in groups of four wells, with blank wells between the treated groups to ensure that each group of wells received the correct dose of light. […]
# Surviving cells were assayed 24 hours after treatment, using the MTS assay kit (CellTiter 96®AQueous, Promega, Madison, Wis.). […] After incubation for 1 h at 37° C., the absorbance of the formazan product at […] was measured directly in an automated plate reader (ThermoMax, Molecular Devices, Menlo Park, Calif.). The quantity of formazan product as measured by the amount of 490 nm absorbance units is directly proportional to the number of living cells in culture, and absorbance values from groups of wells that received the same light dose were averaged. […]
# RIF-1 tumors = test: Tumor oxygen by EPR oximetry at different irradiances; format: in vivo, mice; conditions: light 3 hours post-injection
# Method: Tumor oxygen changes were measured in mice treated either with aminolevulinic acid-induced protoporphyrin IX (ALA-PPIX) or verteporfin. Using electron paramagnetic resonance (EPR) oximetry described in Example 1, two irradiance levels were performed three hours post-injection of verteporfin or ALA-PPIX. Irradiance levels for ALA-PPIX were 30 mW/cm^2 and 150 mW/cm^2, whereas 50 mW/cm^2 and 200 mW/cm^2 were used for verteporfin.
# EPR oximetry measured tumor oxygenation in RIF-1 tumor cells and in tumorigenic mice treated with photodynamic therapy, using synthetic lithium phthalocyanine (LiPc) as the oxygen-sensitive EPR material. Small particles between 50 and 200 μm in size were implanted into the animal tumors by 23-gauge needle at a depth of 1-3 mm within the tumor. Injections of LiPc were performed at least 24 hours prior to photodynamic therapy. Mice were placed in an L-band (1.2 GHz) EPR spectrometer with a microwave bridge that was custom-built for small animal experiments involving measurement of tissue pO2. Each mouse was anesthetized and placed in the EPR resonator for continuous measurement of the tumor tissue pO2 in 15-minute intervals. The external loop resonator was positioned over the tumor to record the EPR signal of injected LiPc within the tissue. Line widths of the EPR signal were converted to pO2 using a calibration curve determined for LiPc. The data were fit with a software program to match the Voigt line shape after the line widths were graphed as a function of time before, during, and after treatment.
# RIF-1 cells [2] = test: In vitro cellular oxygen consumption rate by EPR oximetry; format: cell-based, mouse; conditions: 1 μg/ml BPD, 3-hour incubation
# Method: RIF-1 cells were plated three days prior to treatment in black, plastic 96-well plates with a transparent bottom (Fisher Scientific, Springfield, N.J.) at a density of 5000 cells/200 μl medium/well. After 3 days of growth in 5% CO2 at 37° C. in a humidified incubator, the cells were used in photodynamic therapy. On the day of treatment, the medium was replaced with 100 μl/well of medium with 1 μg/ml BPD in the verteporfin preparation. After a 3-hour incubation, the BPD solution was removed and rinsed once with Hanks Balanced Salt Solution (HBSS), then 100 μl of fresh medium was added to the wells. Cells were irradiated in groups of four wells, with blank wells between the treated groups to ensure that each group of wells received the correct dose of light. In each 96-well plate, squares of 4 were treated with increasing light doses with 8 groups/plate, including the control, non-irradiated group. Surviving cells were assayed for viability and/or cellular oxygen consumption.
# Immediately following photodynamic therapy, cells were trypsinized, suspended in fresh medium, and cell viability determined by trypan blue dye exclusion prior to use in oxygen consumption measurement. […] The rate of oxygen consumption was measured using EPR. […] A Bruker EMX EPR spectrometer measured all spectra, operating at 9 GHz. […] The slope of the obtained data was determined by linear regression. […]
substance,measurement,setting,value
benzoporphyrin derivative mono-acid ring ‘A’ (BPD-MA) [Verteporfin],cell survival,RIF-1 cells [1],20±5%
same,"tumor pO2 levels during treatment, low irradiance","RIF-1 tumors; 50 mW/cm^2 verteporfin, 30 mW/cm^2 ALA-PPIX",remained the same
same,"tumor pO2 levels during treatment, high irradiance","RIF-1 tumors; 200 mW/cm^2 verteporfin, 150 mW/cm^2 ALA-PPIX",remained the same
same,oxygen consumption rate,RIF-1 cells [2]; highest light dose 16 J/cm^2,0.37±0.04 mmol/min/10^6 cells
same,oxygen consumption as % of control oxygen consumption rates,RIF-1 cells [2]; maximal light dose,21±4%

# Source: patent US20050112131A1, “Methods of adjuvant photodynamic therapy to enhance radiation sensitization” (priority 2002, published 2005)
